# From US20140357512A1, “HISTONE DEACETYLASE (HDAC) BIOMARKERS IN MULTIPLE MYELOMA” (priority 2013, published 2014)
# Test system: human myeloma cell line MM.1S
# Test: SILAC acetylated-lysine peptide profiling, HDAC inhibitor vs DMSO (light/heavy ratio)
# Assay type: cell-based
# Source text: An embodiment of the invention comprises utilizing the SILAC method in order to quantitate changes in protein expression between two or more populations of cells. The SILAC method is a technique based on mass spectrometry that detects differences in protein abundance among samples using non-radioactive isotopic labeling. The SILAC method is known in the art, and described in detail in Ong et al., “Stable Isotope Labeling by Amino Acids in Cell Culture, SILAC, as a Simple and Accurate Approach to Expression Proteomics”, Molecular & Cellular Proteomics, vol. 1, pp. 376-386 (2002), which is incorporated herein by reference in its entirety.
# Briefly, the SILAC method involves growing two populations of cells in cell culture. The first population of cells is grown in growth media containing normal amino acids (“normal media”). The second population of cells is grown in media lacking a standard essential amino acid (such as lysine), but is then supplemented with a non-radioactive, isotopically labeled form of that essential amino acid (such as lysine labeled with ^13C atoms, rather than normal ^12C atoms), which is called “heavy media”. When the two populations of cells are each growing in the medium, they incorporate the amino acids into all of their proteins. The growth of cells maintained in the heavy media is no different from that in normal media. All peptides containing the heavy amino acids are heavier than their normal counterparts. The cells from each of the two populations of cells are lysed. The lysates from each of the two cell populations are then combined. The combined cell lysates are then analyzed by mass spectrometry. Pairs of chemically identical peptides of different stable isotope composition can be differentiated in a mass spectrometer due to their difference in mass. The ratio of peak intensities in the mass spectrum for such peptide pairs reflects the abundance ratio for the two proteins.
# This example describes SILAC studies that were performed to compare the effects of three different HDAC inhibitors (Compound A, Compound B, and tubastatin A) to a control on a human multiple myeloma cell line. The HDAC inhibitors were also compared amongst themselves to determine differences in their effects.
# A human myeloma cell line MM.1S was grown using either ^12C (light) or ^13C (heavy) lysine containing culture medium. The “heavy” cells were treated with DMSO as the control, and the “light” cells were treated with a single HDAC inhibitor at 37° C. for 6 hours. The heavy and light cells were lysed, and the lysates were mixed in 1:1 ratio and digested with the protease trypsin. The acetylated lysine containing peptides (due to the action of the HDAC inhibitor) in the digested peptide pool were captured by a non-specific anti-acetylated lysine antibody cocktail (the antibodies identify both light and heavy acetylated peptides), and subjected to mass spectrometry analysis in order to identify thousands of individual peptides.
# Thousands of peptides were identified in pairs (^12C and ^13C) due to their known mass differences. The amino acid sequence and quantitative ratio (Light/Heavy) of a given peptide in two differentially treated cell lysates were then determined and annotated with their possible protein (gene) sources.
# As stated above, three HDAC inhibitors (Compound A, Compound B, and Tubastatin A) were used. Thus, the SILAC method was performed three times, with a different HDAC inhibitor compared to a control each time. Accordingly, there are three pairs of quantitative data in the table below, i.e., Compound A:DMSO, Compound B:DMSO, and Tubastatin A:DMSO. A cut-off of 1.30 fold of change (increase or decrease) was then used to determine “changed” or “+” in the table, and any peptides with a fold of change less than 1.3 fold were determined to be “unchanged” or “0” in the table. Those peptides that were not identified were marked as “NA” in the table. […]
compound,measurement,setting,value
"O=C(NO)c1cnc(NC2(c3cccc(F)c3)CCCCC2)nc1 [Compound B, 2-((1-(3-fluorophenyl)cyclohexyl)amino)-N-hydroxypyrimidine-5-carboxamide]",light to heavy ratio (L/H ratio) of acetylated peptide SEVDMLK(ac)IR (SEQ ID NO: 295),"Putative annexin A2-like protein [302], ANXA2P2, drug:DMSO",0.00 log 2
same,light to heavy ratio (L/H ratio) of acetylated peptide K(ac)[…] (SEQ ID NO: 358),"Putative annexin A2-like protein [310], ANXA2P2, drug:DMSO",0.66 log 2
same,L/H ratio of acetylated peptide,"QLNDVK(ac)[…] (SEQ ID NO: 386), Scavenger mRNA-decapping enzyme DcpS [128], DCPS",0.97 log 2
same,L/H ratio of acetylated peptide EIDSVK(ac)[…] (SEQ ID NO: 73),"RAC2 [153], log 2 scale, drug vs DMSO",0.00
same,"light to heavy ratio (L/H ratio) of acetylated peptide, log 2 scale","RPAVK(ac)QFHDSK (SEQ ID NO: 203), 60S ribosomal protein L18a [143], RPL18A",0.00
same,L/H ratio of acetylated peptide FIDTTSK(ac)FGHGR (SEQ ID NO: 83),"RPL3L [373], log 2 scale, drug vs DMSO",0.00
same,L/H ratio of acetylated peptide AASLK(ac)SNYNLPMHK (SEQ ID NO: 84),"RPL4 [274], log 2 scale, drug vs DMSO",0.00
same,L/H ratio of acetylated peptide NFLGEK(ac)YIR (SEQ ID NO: 86),"RPL9 [121], log 2 scale, drug vs DMSO",0.00
same,L/H ratio of acetylated peptide […](ac)SR (SEQ ID NO: 79),"RPL18A [41], log 2 scale, drug vs DMSO",0.00
same,L/H ratio of acetylated peptide YLK(ac)YLTK (SEQ ID NO: 81),"RPL22 [84], log 2 scale, drug vs DMSO",0.00
same,L/H ratio of acetylated peptide INFDK(ac)YHPGYFGK (SEQ ID NO: 82),"RPL27A [47], log 2 scale, drug vs DMSO",0.00
same,L/H ratio of acetylated peptide LK(ac)[…] (SEQ ID NO: 89),"RPS4X [53], log 2 scale, drug vs DMSO",0.00
same,L/H ratio of acetylated peptide SFQK(ac)IQVR (SEQ ID NO: 90),"RPS7 [74], log 2 scale, drug vs DMSO",0.00
same,L/H ratio of acetylated peptide […](ac)GK (SEQ ID NO: 87),"RPS23 [135], log 2 scale, drug vs DMSO",0.00
same,L/H ratio of acetylated peptide LAVLK(ac)YYK (SEQ ID NO: 88),"RPS27A [104], log 2 scale, drug vs DMSO",0.00
same,light to heavy ratio (L/H ratio) of acetylated peptide […](ac)YK (SEQ ID NO: 360),"Rho GDP-dissociation inhibitor 2 [47], ARHGDIB, drug:DMSO",0.60 log 2
same,light to heavy ratio (L/H ratio) of acetylated peptide […](ac)R (SEQ ID NO: 334),"S1 IF1 type family protein [56], EIF1AXP1, drug:DMSO",−0.40 log 2
same,L/H ratio of acetylated peptide LAELK(ac)QECLAR (SEQ ID NO: 94),"SARNP 17], log 2 scale, drug vs DMSO",0.00
same,L/H ratio of acetylated peptide (ac)ATETVELHK(ac)LK (SEQ ID NO: 93),"SARNP [10], log 2 scale, drug vs DMSO",0.00
same,L/H ratio of acetylated peptide,"SELEFK(ac)FNR (SEQ ID NO: 422), Sialic acid synthase [61], NANS",0.53 log 2
same,L/H ratio of acetylated peptide EHTALLK(ac)IEGVYAR,"SEQ ID NO: 630, 60S ribosomal protein L35a [29], RPL35A",0.00 log 2
same,L/H ratio of acetylated peptide NDEELNK(ac)LLGR,"SEQ ID NO: 634, Histone H2A type 1-B/E [96], HIST1H2AE, HIST1H2AB, HIST1H2AD, HIST1H2AG, HIST1H2AK, HIST1H2AL, HIST1H2AM, HIST1H2AJ, HIST1H2AI",0.00 log 2
same,L/H ratio of acetylated peptide TFK(ac)[…],"SEQ ID NO: 636, 60S ribosomal protein L3 [103], SNORD43, RPL3",0.00 log 2
same,L/H ratio of acetylated peptide YK(ac)[…],"SEQ ID NO: 637, Protein disulfide-isomerase [328], P4HB",0.00 log 2
same,L/H ratio of acetylated peptide NAEK(ac)YAEEDRR,"SEQ ID NO: 638, Stress-70 protein mitochondrial [567], HSPA9",0.00 log 2
same,L/H ratio of acetylated peptide […](ac)DR,"SEQ ID NO: 639, pyruvate dehydrogenase E1 component subunit alpha somatic form mitochondrial isoform 2 precursor [359], PDHA1",0.00 log 2
same,L/H ratio of acetylated peptide VEYFLK(ac)WK,"SEQ ID NO: 645, Chromobox protein homolog 3 [50], CBX3",0.00 log 2
same,L/H ratio of acetylated peptide HYK(ac)TDFDK,"SEQ ID NO: 646, Isocitrate dehydrogenase [NADP] mitochondrial [275], IDH2",0.00 log 2
same,L/H ratio of acetylated peptide EGYAWAEDK(ac)EHCEEYGR,"SEQ ID NO: 647, tRNA-splicing ligase RtcB homolog [190], C22orf28",0.00 log 2
same,L/H ratio of acetylated peptide […](ac)QNK,"SEQ ID NO: 650, Dihydrolipoyl dehydrogenase mitochondrial [143], DLD",0.00 log 2
same,L/H ratio of acetylated peptide FYVK(ac)DHR,"SEQ ID NO: 651, CDGSH iron-sulfur domain-containing protein 1 [37], CISD1",0.00 log 2
same,L/H ratio of acetylated peptide HIVK(ac)EFK,"SEQ ID NO: 653, Stress-70 protein mitochondrial [288], HSPA9",0.00 log 2
same,L/H ratio of acetylated peptide MYKEEGLK(ac)AFYK,"SEQ ID NO: 654, Isoform A of Phosphate carrier protein mitochondrial [214], SLC25A3",0.00 log 2
same,L/H ratio of acetylated peptide […](ac)EFR,"SEQ ID NO: 657, Isoform 1 of Clathrin heavy chain 1 [1264], CLTC",0.00 log 2
same,L/H ratio of acetylated peptide YELTGK(ac)FER,"SEQ ID NO: 659, Annexin A6 [81], ANXA6",0.00 log 2
same,L/H ratio of acetylated peptide LAMVK(ac)AEPDVK,"SEQ ID NO: 661, NADH dehydrogenase [ubiquinone] 1 alpha subcomplex subunit 5 [60], NDUFA5",0.00 log 2
same,L/H ratio of acetylated peptide NEK(ac)LFYR,"SEQ ID NO: 662, NADP-dependent malic enzyme mitochondrial [119], ME3",0.00 log 2
same,L/H ratio of acetylated peptide DLSLDDFK(ac)GK,"SEQ ID NO: 664, Thioredoxin-dependent peroxide reductase mitochondrial [91], PRDX3",0.00 log 2
same,L/H ratio of acetylated peptide LTSDDVK(ac)EQIYK,"SEQ ID NO: 669, 40S ribosomal protein S13 [34], RPS13",0.00 log 2
same,L/H ratio of acetylated peptide SCNCLLLK(ac)[…],"SEQ ID NO: 670, Isoform alpha-enolase of Alpha-enolase [343], ENO1",0.00 log 2
same,L/H ratio of acetylated peptide […](ac)FLIK,"SEQ ID NO: 671, Methyltransferase-like protein 7A [105], METTL7A",0.00 log 2
same,L/H ratio of acetylated peptide […](ac)QLK,"SEQ ID NO: 672, Annexin A6 [442], ANXA6",0.00 log 2
same,L/H ratio of acetylated peptide LENDK(ac)SFR,"SEQ ID NO: 678, Isoform 1 of Enoyl-CoA delta isomerase 1 mitochondrial [89], ECI1",0.00 log 2
same,L/H ratio of acetylated peptide LVAMK(ac)FLR,"SEQ ID NO: 679, Isoform 1 of Nucleoside diphosphate kinase B [39], NME1, NME2, NME1-NME2",0.00 log 2
same,L/H ratio of acetylated peptide SGK(ac)YDLDFK,"SEQ ID NO: 688, Isoform alpha-enolase of Alpha-enolase [256], ENO1",0.00 log 2
same,L/H ratio of acetylated peptide LYGDLK(ac)HLK,"SEQ ID NO: 689, cDNA FLJ61478 highly similar to Succinate dehydrogenase (ubiquinone) flavoprotein subunit mitochondrial [547], SDHA",0.00 log 2
same,L/H ratio of acetylated peptide TISAK(ac)YAEER,"SEQ ID NO: 692, Isoform 1 of Myosin-9 [1459], MYH9",0.00 log 2
same,L/H ratio of acetylated peptide (ac)ASNK(ac)TTLQK,"SEQ ID NO: 693, Chromobox protein homolog 3 [5], CBX3",0.00 log 2
same,L/H ratio of acetylated peptide KAVTK(ac)VQK,"SEQ ID NO: 699, Histone H2B type 2-F [21], HIST2H2BF",0.00 log 2
same,L/H ratio of acetylated peptide ILQK(ac)QGFK,"SEQ ID NO: 700, Dihydrolipoyl dehydrogenase mitochondrial [267], DLD",0.00 log 2
same,L/H ratio of acetylated peptide NK(ac)FGAPQK,"SEQ ID NO: 701, Trifunctional enzyme subunit alpha mitochondrial [353], HADHA",0.00 log 2
same,L/H ratio of acetylated peptide VTAVHK(ac)ANIMK,"SEQ ID NO: 702, Isocitrate dehydrogenase [NAD] subunit gamma mitochondrial [221], IDH3G",0.00 log 2
same,L/H ratio of acetylated peptide ACPEK(ac)HFAFK,"SEQ ID NO: 703, Protein FAM3C [67], FAM3C",0.00 log 2
same,L/H ratio of acetylated peptide QLAQK(ac)YNCDK,"SEQ ID NO: 705, Ubiquitin-60S ribosomal protein L40 [88], UBA52",0.00 log 2
same,L/H ratio of acetylated peptide […](ac)EDVK,"SEQ ID NO: 706, Isoform 1 of ATP synthase subunit d mitochondrial [95], ATP5H",0.00 log 2
same,L/H ratio of acetylated peptide ADK(ac)LAEEHSS,"SEQ ID NO: 708, ATP synthase subunit beta mitochondrial [522], ATP5B",0.00 log 2
same,L/H ratio of acetylated peptide DFGSFDK(ac)FK,"SEQ ID NO: 709, Superoxide dismutase [Mn] mitochondrial [130], SOD2",0.00 log 2
same,L/H ratio of acetylated peptide CSK(ac)LPSSTK(ac)SGWPR,"SEQ ID NO: 711, cDNA FLJ75110 highly similar to Homo sapiens PHD finger protein 15 (PHF15) mRNA 3[2:38], PHF15",0.00 log 2
same,L/H ratio of acetylated peptide KAINK(ac)AQK,"SEQ ID NO: 712, Histone H2B type 1-M [21], HIST1H2BM",0.00 log 2
same,L/H ratio of acetylated peptide TDLEK(ac)[…],"SEQ ID NO: 714, Putative annexin A2-like protein [157], ANXA2P2",0.00 log 2
same,L/H ratio of acetylated peptide KGIEK(ac)NLGIGK,"SEQ ID NO: 718, Malate dehydrogenase mitochondrial [301], MDH2",0.00 log 2
same,L/H ratio of acetylated peptide QLYNIYAK(ac)HTK,"SEQ ID NO: 720, Putative ATP-dependent Clp protease proteolytic subunit mitochondrial [211], CLPP",0.00 log 2
same,L/H ratio of acetylated peptide GKGDK(ac)AQIEK,"SEQ ID NO: 721, 60 kDa heat shock protein mitochondrial [364], HSPD1",0.00 log 2
same,L/H ratio of acetylated peptide K(ac)FLVHNVK,"SEQ ID NO: 722, 60S ribosomal protein L32 [76], RPL32",0.00 log 2
